Test results as given in US20090220435A1, “TIGHT JUNCTION MODULATING PEPTIDE COMPONENTS FOR ENHANCING MUCOSAL DELIVERY OF THERAPEUTIC AGENTS” (priority 2005, published 2009).
Read-outs that look alike come from different tables or passages of the source. Non-standard residues stand in square brackets, D forms with d. Residues, ends and D or L forms follow the SMILES beside them.

Assays:
[1] = tested on: EpiAirway™ human-derived tracheal/bronchial epithelial cells; assay: Transepithelial electrical resistance (TER) across EpiAirway epithelial cell layer; format: cell-based; conditions: for TER(x)/TER(159) +/− SEM: ratio to PN159; for Relative TER Decrease: relative to PN159 = 1.0; for TER reduction (highest within the concentration range tested): EpiAirway epithelial cells
[2] = tested on: EpiAirway™ human-derived tracheal/bronchial epithelial cells; assay: Cytotoxicity (LDH assay); format: cell-based
Method: The amount of cell death was assayed by measuring the loss of lactate dehydrogenase (LDH) from the cells using a CytoTox 96 Cytoxicity Assay Kit (Promega Corp., Madison, Wis.). Fifty microliters of sample was loaded into a 96-well assay plates. Fresh, cell-free culture medium was used as a blank. 50 μl of substrate solution was added to each well and the plates incubated for 30 minutes at room temperature in the dark. Following incubation, 50 μl of stop solution was added to each well and the plates read on an optical density plate reader at 490 nm.
The amount of cell death will be assayed by measuring the loss of lactate dehydrogenase (LDH) from the cells using a CytoTox 96 Cytotoxicity Assay Kit (Promega Corp., Madison, Wis.). Fifty microliters of sample will be loaded into a 96-well assay plates. Fresh, cell-free culture medium will be used as a blank. Fifty microliters of substrate solution will be added to each well and the plates incubated for 30 minutes at room temperature in the dark. Following incubation, 50 μl of stop solution will be added to each well and the plates read on an optical density plate reader at 490 nm. The measurement of LDH release into the basolateral media indicates relative cytotoxicity of the samples. One hundred percent lysis of control inserts with 0.3% Octylphenolpoly(ethyleneglycolether)×(TritonX-100) allows LDH values to be expressed as percentage of total lysis.
In some embodiments, The amount of cell death was assayed by measuring the release of lactate dehydrogenase (LDH) from the cells into the apical medium using a CytoTox 96 Cytotoxicity Assay Kit (Promega Corp., Madison, Wis.). One percent Octylphenolpoly (ethyleneglycolether)×(Triton X-100™) diluted in phosphate buffered saline (PBS) causes 100% lysis in cultured cells and served herein as a positive control for the LDH assay. Following the one hour incubation period with a test formulation (refer to Table 24 of Example 25 for details of test formulations), the total liquid volume of each insert was brought to a final volume of 200 μl with culture medium. The apical medium was then mixed by pipetting four times with a multichannel pipette set to a 100 μl volume. After mixing, a 100 μl sample from the apical side of each insert was transferred to a new 96-well plate. The apical media samples were sealed with a plate sealer and stored at room temperature for same day analysis or stored overnight at 4° C. for analysis the next day. To measure LDH levels, 5 μl of the 100 μl apical media sample was diluted in 45 μl DPBS in a new 96-well plate. Fresh, cell-free culture medium will be used as a blank. Fifty microliters of substrate solution was added to each well and incubated for 30 minutes at room temperature away from direct light. Following the 30 minute incubation, 50 μl of stop solution was added to each well. Optical density (OD) was measured at 490 nm with a uQuant absorbance plate reader from Biotek Instruments. The measurement of LDH release into the apical media indicates relative cytotoxicity of the samples. Percent cytotoxicity for each test formulation was calculated by subtracting the measured absorbance of the PBS control (basal level of LDH release) from the measured absorbance of the individual test formulation and then dividing that value by the measured absorbance for the 1% Triton X-100™ positive control, multiplied by 100.
An LDH assay was used to assess the cytotoxicity of the treatments. The LDH level was determined by CytoTox96 Non-Radioactive Cytotoxic Assay (Promega, Madison, Wis.) following the manufacturer's protocol. For basal-lateral LDH levels, triplicates of 50 ul of the basal medium were used to determine the LDH level. For apical LDH level, 150 ul of the diluted apical sample was removed by adding 150 ul of Epi-CM to the apical chamber, the medium was mixed by pipeting up and down, and 150 ul medium was removed and diluted 2× (for a final 8-fold dilution) for assay in triplicates of 50 ul.

[3] = 15 minute treatment at the peptide's optimal concentration
[4] = 60 minute treatment at the peptide's optimal concentration

Row | Molecule | TER(x)/TER(159) +/− SEM [1] | Relative TER Decrease [1] | other results
1 | CC[C@H](C)[C@H](NC(=O)[C@H](CCCCN)NC(=O)[C@@H](NC(=O)[C@H](CCC(N)=O)NC(=O)[C@@H](N)CCCNC(=N)N)[C@@H](C)CC)C(=O)N[C@@H](Cc1c[nH]c2ccccc12)C(=O)N[C@@H](Cc1ccccc1)C(=O)N[C@@H](CCC(N)=O)C(=O)N[C@@H](CC(N)=O)C(=O)N[C@@H](CCCNC(=N)N)C(=O)N[C@@H](CCCNC(=N)N)C(=O)N[C@@H](CCSC)C(=O)N[C@@H](CCCCN)C(=O)N[C@@H](Cc1c[nH]c2ccccc12)C(=O)N[C@@H](CCCCN)C(=O)N[C@@H](CCCCN)C(N)=O [PN58] | – | – | TER reduction ([1]; 250 μM peptide): −6%; TER reduction ([1]; 500 μM peptide): 64%; TER reduction ([1]; 1000 μM peptide): 88%; LDH15 [2, 3]: 0.0007; LDH60 [2, 4]: 0.02
2 | CC(C)C[C@@H](NC(=O)[C@H](N)CCCCN)C(=O)N[C@H](C)C(=O)N[C@H](CC(C)C)C(=O)N[C@H](CCCCN)C(=O)N[C@H](CC(C)C)C(=O)N[C@H](C)C(=O)N[C@H](CC(C)C)C(=O)N[C@H](CCCCN)C(=O)N[C@H](C)C(=O)N[C@H](CC(C)C)C(=O)N[C@H](CCCCN)C(=O)N[C@H](C)C(=O)N[C@H](C)C(=O)N[C@H](CC(C)C)C(=O)N[C@H](CCCCN)C(=O)N[C@H](CC(C)C)C(=O)N[C@H](C)C(N)=O [PN393, NH2-klalklalkalkaalkla-amide] | 1.06 +/− 0.00 | – | –
3 | CC(C)C[C@H](NC(=O)[C@H](CC(C)C)NC(=O)[C@@H](CCCCN)NC(=O)[C@H](CC(C)C)NC(=O)[C@H](CC(C)C)NC(=O)[C@H](CCCCN)NC(=O)[C@@H](CCCCN)NC(=O)[C@@H](CC(C)C)NC(=O)[C@H](CC(C)C)NC(=O)[C@@H](CCCCN)NC(=O)[C@H](CCCCN)NC(=O)[C@H](CC(C)C)NC(=O)[C@@H](CC(C)C)NC(=O)[C@H](CCCCN)NC(=O)[C@@H](N)CC(C)C)C(N)=O [PN407, NH2-LKlLKkLlkKLLkLL-amide] (H-LK[dL]LK[dK]L[dL][dK]KLL[dK]LL-NH2) | 1.08 +/− 0.01 | 1.1 | –
4 | CC(C)C[C@@H](NC(=O)[C@@H](C)N)C(=O)N[C@H](CCCCN)C(=O)N[C@H](CC(C)C)C(=O)N[C@H](C)C(=O)N[C@H](C)C(=O)N[C@H](CCCCN)C(=O)N[C@H](CC(C)C)C(=O)N[C@H](C)C(=O)N[C@H](CCCCN)C(=O)N[C@H](CC(C)C)C(=O)N[C@H](C)C(=O)N[C@H](CC(C)C)C(=O)N[C@H](CCCCN)C(=O)N[C@H](CC(C)C)C(=O)N[C@H](C)C(=O)N[C@H](CC(C)C)C(=O)N[C@H](CCCCN)C(N)=O [PN408, NH2-alklaaklaklalklalk-amide] | 1.05 +/− 0.01 | – | –
5 | CC(C)C[C@H](NC(=O)[C@H](C)NC(=O)[C@H](CCCCN)NC(=O)[C@H](CC(C)C)NC(=O)[C@H](CC(N)=O)NC(=O)[C@H](CC(C)C)NC(=O)[C@H](CCCCN)NC(=O)[C@H](CC(C)C)NC(=O)[C@@H](CCCCN)NC(=O)[C@H](CC(C)C)NC(=O)[C@H](CCCCN)NC(=O)[C@H](CC(C)C)NC(=O)[C@H](C)NC(=O)[C@H](C)NC(=O)[C@H](CCCCN)NC(=O)[C@H](CC(C)C)NC(=O)[C@H](C)NC(=O)[C@H](CCCCN)NC(=O)[C@H](CC(C)C)NC(=O)[C@H](C)NC(=O)[C@H](CCCCN)NC(=O)[C@H](CC(C)C)NC(=O)[C@H](C)NC(=O)[C@H](CC(C)C)NC(=O)[C@@H](N)CCCCN)C(N)=O [PN422] (H-KLALKALKALKAALKL[dK]LKLNLKAL-NH2) | 0.47 +/− 0.07 | – | –
6 | H-AAVALLPAVLLALLAPRKKRRQRRRPPQ-NH2 [PN27] | – | – | TER reduction ([1]; 125 μM peptide): 81%; TER reduction ([1]; 250 μM peptide): 91%; TER reduction ([1]; 500 μM peptide): 94%; LDH15 [2, 3]: 0.0056; LDH60 [2, 4]: 0.035
7 | H-KALAALLKKAAKLLAALK-NH2 [PN442] | 0.93 +/− 0.03 | – | –
8 | H-KALAALLKKLAKLLAALK-NH2 [PN444] | 0.82 +/− 0.05 | – | –
9 | H-KALKLKAALALLAKLKLA-NH2 [PN424] | 0.59 +/− 0.07 | – | –
10 | H-KETWWETWWTEWSQPGRKKRRQRRRRPPQ-NH2 [PN183] | – | – | TER reduction ([1]; 100 μM peptide): 25%; TER reduction ([1]; 500 μM peptide): 41%; TER reduction ([1]; 1000 μM peptide): 55%; TER reduction (highest within the concentration range tested) [1]: 55%
11 | H-KLAAALLKKAKKLAAALL-NH2 [PN441] | 0.54 +/− 0.04 | – | –
12 | H-KLALKLALKALKAALK-NH2 [PN418] | 1.05 +/− 0.05 | – | –
13 | H-KLALKLALKALKAALKLALK-NH2 [PN419] | 1.23 +/− 0.01 | – | –
14 | H-KLALKLALKALKAALKLALKLA-NH2 [PN420] | 0.77 +/− 0.05 | – | –
15 | H-KLALKLALKALKAALKLALKLALK-NH2 [PN421] | 0.74 +/− 0.11 | – | –
16 | H-KLALKLALKNLKAALKLA-NH2 [PN448] | – | 0.4 | –
17 | H-KLAWKLALKALKAALKLA-NH2 [PN0425] | – | 1.0 | –
18 | H-KLAWKLALKALKAAWKLA-NH2 [PN0427] | – | 1.0 | –
19 | H-KLAWKLAWKALKAAWKLA-NH2 [PN0428] | – | 0.7 | –
20 | H-KLWSAWPSLWSSLWKP-NH2 [PN228] | – | – | TER reduction ([1]; 100 μM peptide): 9%; TER reduction ([1]; 500 μM peptide): 82%; LDH15 [2]: 0.0063; LDH60 [2]: 0.046
21 | H-LKLLKKLLKKLLKLL-NH2 [PN406] | – | 0.9 | –
22 | H-LKTLATALTKLAKTLTTL-NH2 [PN443] | – | 0.3 | –
23 | H-RKKRRQRRRPPQCAAVALLPAVLLALLAP-NH2 [PN28] | – | – | TER reduction (highest within the concentration range tested) [1]: functionally equivalent to PN27
24 | H-RLAWRLALRALRAALRLA-NH2 [PN395] | – | 0.8 | –
25 | Octylphenolpoly (ethyleneglycolether)×(Triton X-100™) [Triton X-100 ™, reference compound] | – | – | % Triton-X LDH Release ([2]; 1% Triton X-100, positive control): 100%
